Test results published in patent publication US20040247577A1, “Method and composition for inhibiting heparanase activity” (priority 2001, published 2004).
Blank lines part the entries; values can stand above or below the molecule they belong to.

Experiments:
mouse heparanase = target: T1, mouse heparanase (Mus musculus, UniProt Q6YGZ1); assay: Inhibition of recombinant mouse heparanase activity; format: biochemical
T1 construct: heterodimer of the 50 kDa polypeptide (Lys^150-Ile^535) and the 8 kDa peptide (Asp^28-Lys^100); made in house
T1 sequence (Q6YGZ1 150-535): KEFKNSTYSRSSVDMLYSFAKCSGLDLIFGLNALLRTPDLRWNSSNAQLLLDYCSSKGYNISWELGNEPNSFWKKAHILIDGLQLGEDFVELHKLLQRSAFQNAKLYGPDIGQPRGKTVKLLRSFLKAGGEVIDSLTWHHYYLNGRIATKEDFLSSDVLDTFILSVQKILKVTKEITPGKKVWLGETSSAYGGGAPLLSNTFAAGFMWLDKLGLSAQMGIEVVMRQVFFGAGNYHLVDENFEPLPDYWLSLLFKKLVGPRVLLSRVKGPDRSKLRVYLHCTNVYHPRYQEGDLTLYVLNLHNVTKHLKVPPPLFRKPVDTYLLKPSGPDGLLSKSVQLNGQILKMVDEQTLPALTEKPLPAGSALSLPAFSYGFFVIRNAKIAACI
T1 sequence (Q6YGZ1 28-100): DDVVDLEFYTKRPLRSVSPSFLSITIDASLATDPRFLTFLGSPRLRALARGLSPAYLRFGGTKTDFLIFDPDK
Description: (§1) Polypeptide samples were mixed with 25 μl of ^35S-ECM-HSPG (a generous gift from Dr. Israel Vlodavsky, The Hadassah-Hebrew University Hospital, Jerusalem, Israel) in a buffer containing 0.1 M sodium acetate, pH 5.0, 0.01% Triton X-100. After overnight incubation at 37° C., the samples were loaded onto a Superose 12 column (0.7×25 cm, 0.5 ml/min) and the radioactivity of the fractions (0.25 ml/fraction) were measured in a β-scintillation counter. The enzymatic activity was also studied for the ability to degrade HS. For this purpose, ^3H-HS-Sepharose (6.25 nM) was substituted as the substrate in the heparanase reaction, and the radioactivity released into the reaction buffer after overnight incubation was determined.

lung metastasis = details: cited from earlier work; for tumor growth and angiogenesis: Parish et al. 1999; for incidence of lung metastasis: experimental animals
human heparanase = target: T2, human heparanase (Homo sapiens, UniProt Q9Y251); details: cited from earlier work
T2 sequence (Q9Y251 158-543): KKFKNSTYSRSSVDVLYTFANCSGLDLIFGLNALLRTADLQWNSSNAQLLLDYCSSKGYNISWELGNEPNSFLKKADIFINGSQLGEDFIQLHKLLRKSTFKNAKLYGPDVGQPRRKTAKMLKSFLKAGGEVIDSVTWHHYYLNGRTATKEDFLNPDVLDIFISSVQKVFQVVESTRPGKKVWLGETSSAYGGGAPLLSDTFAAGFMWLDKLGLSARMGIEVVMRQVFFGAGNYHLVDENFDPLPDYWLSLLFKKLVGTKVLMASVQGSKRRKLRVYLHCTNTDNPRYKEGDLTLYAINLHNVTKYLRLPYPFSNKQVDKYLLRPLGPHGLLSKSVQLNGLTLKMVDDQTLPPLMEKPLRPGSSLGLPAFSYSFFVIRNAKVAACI
T2 sequence (Q9Y251 36-109): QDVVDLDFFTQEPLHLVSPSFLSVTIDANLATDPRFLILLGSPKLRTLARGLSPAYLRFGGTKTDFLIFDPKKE

[1] = Enzymatic activity of heparanase on radiolabeled HSPG / HS substrates; format: biochemical
Description: as §1, with “Israel Vlodavsky, The Hadassah-Hebrew University Hospital, Jerusalem, Israel) in a buffer containing 0.1 M sodium acetate, pH 5.0, 0.01% Triton X-100.” left out
To test whether the recombinant mouse heparanase is enzymatically active, purified polypeptide was incubated with metabolically radiolabeled HSPG. The reaction products were analyzed by gel filtration on a Superose 12 column.

IC50 (mouse heparanase): 50 nM
inhibition of mouse heparanase activity at 1 μM (mouse heparanase; 1 μM): completely inhibited
Molecule: Laminarin sulfate
tumor growth and angiogenesis (lung metastasis): markedly reduced
incidence of lung metastasis (lung metastasis): markedly reduced
tumor metastasis in vivo (lung metastasis; in vivo): inhibit
human heparanase activity in vitro (human heparanase): inhibit

inhibition of mouse heparanase enzyme activity (in words) (mouse heparanase): inhibited
Molecule: heparin

Molecule: mannopentaose phosphate sulfate [PI-88]
tumor growth and angiogenesis (lung metastasis): markedly reduced
incidence of lung metastasis (lung metastasis): markedly reduced

pH at which the enzyme was most active ([1]; ^3H-HS at various pH conditions): 5.0
additional enzyme necessary for comparable activity ([1]; pH 7.5 compared with pH 5.0): ~10 fold
B1: mouse heparanase: Recombinant full-length mouse heparanase polypeptide of 535 amino acids, mature form a heterodimer of 50 kDa and 8 kDa (protein, UniProt Q6YGZ1 1-535, looked up)
chain: MLRLLLLWLWGPLGALAQGAPAGTAPTDDVVDLEFYTKRPLRSVSPSFLSITIDASLATDPRFLTFLGSPRLRALARGLSPAYLRFGGTKTDFLIFDPDKEPTSEERSYWKSQVNHDICRSEPVSAAVLRKLQVEWPFQELLLLREQYQKEFKNSTYSRSSVDMLYSFAKCSGLDLIFGLNALLRTPDLRWNSSNAQLLLDYCSSKGYNISWELGNEPNSFWKKAHILIDGLQLGEDFVELHKLLQRSAFQNAKLYGPDIGQPRGKTVKLLRSFLKAGGEVIDSLTWHHYYLNGRIATKEDFLSSDVLDTFILSVQKILKVTKEITPGKKVWLGETSSAYGGGAPLLSNTFAAGFMWLDKLGLSAQMGIEVVMRQVFFGAGNYHLVDENFEPLPDYWLSLLFKKLVGPRVLLSRVKGPDRSKLRVYLHCTNVYHPRYQEGDLTLYVLNLHNVTKHLKVPPPLFRKPVDTYLLKPSGPDGLLSKSVQLNGQILKMVDEQTLPALTEKPLPAGSALSLPAFSYGFFVIRNAKIAACI
modifications: full-length
notes: Recombinant full-length mouse heparanase polypeptide of 535 amino acids, mature form a heterodimer of 50 kDa and 8 kDa
enzymatic activity at pH 4.0 or 8.0 ([1]; pH 4.0 or 8.0): Little or no enzymatic activity was detected
amount of heparanase giving maximal degradation of 6.25 nmole ^3H-HS ([1]; pH 5.0): 50 ng
degradation of ^35S-HSPG, elution profile on Superose 12 column ([1]; undigested substrate eluted in fractions 5-15): eluted as low-MW fragments in later fractions (16-35)
